The source of these data is patent US20260242353A1, “HETEROARYL DERIVATIVES AS DDRs INHIBITORS” (CHIESI FARMACEUTICI S.P.A., priority 2022, published 2026).

One assay concerns the target T1, DDR2 (Homo sapiens, UniProt Q16832).
T1 construct: purchased Life Technologies
T1 sequence (Q16832 22-855): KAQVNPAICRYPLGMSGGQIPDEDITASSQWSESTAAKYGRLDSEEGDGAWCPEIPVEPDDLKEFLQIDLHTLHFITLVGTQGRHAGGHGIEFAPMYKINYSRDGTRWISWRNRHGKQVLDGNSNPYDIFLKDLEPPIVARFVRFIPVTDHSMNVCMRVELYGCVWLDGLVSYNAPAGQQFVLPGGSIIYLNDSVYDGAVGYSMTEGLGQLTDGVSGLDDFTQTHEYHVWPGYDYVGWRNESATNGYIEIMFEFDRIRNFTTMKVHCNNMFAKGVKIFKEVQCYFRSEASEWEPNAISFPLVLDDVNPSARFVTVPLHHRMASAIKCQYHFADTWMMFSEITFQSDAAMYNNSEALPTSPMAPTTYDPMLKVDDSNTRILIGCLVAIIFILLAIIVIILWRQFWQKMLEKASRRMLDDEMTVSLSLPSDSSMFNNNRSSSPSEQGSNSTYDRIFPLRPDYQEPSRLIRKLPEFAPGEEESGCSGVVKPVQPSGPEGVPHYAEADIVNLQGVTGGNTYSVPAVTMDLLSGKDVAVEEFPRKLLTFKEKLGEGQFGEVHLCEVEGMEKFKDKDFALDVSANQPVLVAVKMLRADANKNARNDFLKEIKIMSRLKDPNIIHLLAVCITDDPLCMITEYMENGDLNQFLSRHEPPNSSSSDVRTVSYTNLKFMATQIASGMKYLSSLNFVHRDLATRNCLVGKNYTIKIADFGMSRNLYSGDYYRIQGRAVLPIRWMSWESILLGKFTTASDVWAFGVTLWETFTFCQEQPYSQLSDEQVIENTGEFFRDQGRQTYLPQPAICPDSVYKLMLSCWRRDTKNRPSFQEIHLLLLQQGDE
As to the kind of experiment: LanthaScreen Europium Kinase Binding assay, DDR2. The note with it: 5 nM DDR2, 10 nM Kinase Tracer 178, 1 h at rt; Ki from IC50 by Cheng-Prusoff; read-out: Ki DDR2. Here is the method:
(§1) DDR1 and DDR2 binding assays were performed using Life Technologies LanthaScreen™ Europium Kinase Binding assay. The compounds were incubated with 5 nM DDR1 (Carna Biosciences) or 5 nM DDR2 (Life Technologies) for 1 h at rt in white 384-well OptiPlate (PerkinElmer), containing 20 nM or 10 nM Kinase Tracer 178 respectively and 2 nM Europium labelled anti-GST antibody (Life Technologies) in assay buffer (50 mM HEPES pH 7.5, 10 mM MgCI2, 1 mM EGTA and 0.01% BRIJ35). The ratio of fluorescence emission 665 nm/615 nm after excitation at 340 nm was obtained using the Tecan Spark 20M plate reader. IC50 values were determined in GraphPad Prism 7.0 software, using 4 parameter model: log(inhibitor) vs. response. IC50 values were converted in Ki using the Cheng-Prusoff equation (Ki=IC50/(1+[Tracer]/Kd).

A further assay deals with T2, DDR1 (Homo sapiens, UniProt Q08345).
T2 construct: purchased Carna Biosciences
T2 sequence (Q08345 19-913): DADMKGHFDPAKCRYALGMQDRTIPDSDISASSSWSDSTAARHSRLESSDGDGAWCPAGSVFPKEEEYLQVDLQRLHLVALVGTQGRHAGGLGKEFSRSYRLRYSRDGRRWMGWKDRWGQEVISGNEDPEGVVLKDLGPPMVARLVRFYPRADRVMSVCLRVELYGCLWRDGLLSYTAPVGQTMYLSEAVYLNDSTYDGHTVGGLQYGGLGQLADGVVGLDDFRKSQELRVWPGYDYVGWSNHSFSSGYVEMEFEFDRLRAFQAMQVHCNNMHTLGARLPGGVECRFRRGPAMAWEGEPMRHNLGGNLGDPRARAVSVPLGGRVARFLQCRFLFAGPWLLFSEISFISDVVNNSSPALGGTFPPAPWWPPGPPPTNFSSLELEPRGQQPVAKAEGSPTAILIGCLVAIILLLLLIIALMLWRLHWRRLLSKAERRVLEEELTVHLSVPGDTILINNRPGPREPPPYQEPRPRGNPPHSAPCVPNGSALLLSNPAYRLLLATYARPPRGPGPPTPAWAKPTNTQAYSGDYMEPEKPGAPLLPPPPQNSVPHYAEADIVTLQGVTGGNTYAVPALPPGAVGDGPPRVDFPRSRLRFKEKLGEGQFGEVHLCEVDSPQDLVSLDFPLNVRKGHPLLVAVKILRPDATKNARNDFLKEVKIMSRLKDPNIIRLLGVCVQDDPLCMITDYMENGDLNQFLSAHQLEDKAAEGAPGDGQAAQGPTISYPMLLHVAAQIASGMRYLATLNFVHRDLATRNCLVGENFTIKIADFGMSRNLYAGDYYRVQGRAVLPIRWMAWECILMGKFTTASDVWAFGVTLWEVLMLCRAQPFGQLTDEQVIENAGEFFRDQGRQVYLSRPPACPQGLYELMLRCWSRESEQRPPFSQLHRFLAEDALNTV
As to the kind of experiment: LanthaScreen Europium Kinase Binding assay, DDR1. The note with it: 5 nM DDR1, 20 nM Kinase Tracer 178, 1 h at rt; Ki from IC50 by Cheng-Prusoff; read-out: Ki DDR1. Here is the method:
as §1
(In general: TR-FRET usually uses a lanthanide donor and a delayed reading to cut background.)

With `Cc1ccc(C(=O)Nc2cc(C(F)(F)F)ccn2)cc1[C@@H]1CCN(c2cncnc2)C1` [Example 15, (S)-4-methyl-3-(1-(pyrimidin-5-yl)pyrrolidin-3-yl)-N-(4-(trifluoromethyl)pyridin-2-yl)benzamide], the Ki at DDR2 and on DDR1 was less than 5 nM in each case.
With `Cc1ccc(C(=O)Nc2cncc(C(F)(F)F)c2)cc1[C@@H]1CCN(c2cnc3ccc(N4CCN(CC#N)CC4)cn23)C1` [Example 73, (S)-3-(1-(6-(4-(cyanomethyl)piperazin-1-yl)imidazo[1,2-a]pyridin-3-yl)pyrrolidin-3-yl)-4-methyl-N-(5-(trifluoromethyl)pyridin-3-yl)benzamide], the values for the Ki on DDR2 and on DDR1 were 5 to 25 nM and less than 5 nM, respectively.
The like results for `Cc1ccc(C(=O)Nc2cc(C(C)(C)C(F)(F)F)on2)cc1[C@H]1CCN(c2cncc(-c3cnn(C)c3)c2)C1` [Example 60, (R)-4-methyl-3-(1-(5-(1-methyl-1H-pyrazol-4-yl)pyridin-3-yl)pyrrolidin-3-yl)-N-(5-(1,1,1-trifluoro-2-methylpropan-2-yl)isoxazol-3-yl)benzamide] were, in that order, less than 5 nM and less than 5 nM.
On to `Cc1ccc(C(=O)Nc2cc(CN(C)C)nc(C(F)(F)F)c2)cc1[C@@H]1CCN(c2ccnc(C(N)=O)c2)C1` [Example 53, (S)-4-(3-(5-((2-((dimethylamino)methyl)-6-(trifluoromethyl)pyridin-4-yl)carbamoyl)-2-methylphenyl)pyrrolidin-1-yl)picolinamide], for which the Ki (as a rule, a measure of affinity in units of concentration, obtained from inhibition or displacement) on DDR2 is 5 to 25 nM; at DDR1 it was less than 5 nM.
Turning to `Cc1ccc(C(=O)Nc2cncc(C(F)(F)F)c2)cc1[C@@H]1CCN(c2cnc3cnccn23)C1` [Example 37, (S)-3-(1-(imidazo[1,2-a]pyrazin-3-yl)pyrrolidin-3-yl)-4-methyl-N-(5-(trifluoromethyl)pyridin-3-yl)benzamide], the Ki at DDR2 and on DDR1 was less than 5 nM throughout.
In the case of `Cc1ccc(C(=O)Nc2cncc(C(F)(F)F)c2)cc1[C@@H]1CCN(c2cnn3ccc(C(=O)N4CCOCC4)cc23)C1` [Example 89, (S)-4-methyl-3-(1-(5-(morpholine-4-carbonyl)pyrazolo[1,5-a]pyridin-3-yl)pyrrolidin-3-yl)-N-(5-(trifluoromethyl)pyridin-3-yl)benzamide], the inhibition constant (Ki) on DDR2 is 5 to 25 nM; on DDR1, less than 5 nM.
Turning to `Cc1ccc(C(=O)Nc2cncc(C(F)(F)F)c2)cc1[C@@H]1CCN(c2cncc(OCCO)c2)C1` [Example 103, (S)-3-(1-(5-(2-hydroxyethoxy)pyridin-3-yl)pyrrolidin-3-yl)-4-methyl-N-(5-(trifluoromethyl)pyridin-3-yl)benzamide], the Ki on DDR2 and at DDR1 was less than 5 nM each time.
As for `Cc1ccc(C(=O)Nc2cncc(C(F)(F)F)c2)cc1[C@@H]1CCN(c2cnc3[nH]nc(CN(C)C)c3c2)C1` [Example 101, (S)-3-(1-(3-((dimethylamino)methyl)-1H-pyrazolo[3,4-b]pyridin-5-yl)pyrrolidin-3-yl)-4-methyl-N-(5-(trifluoromethyl)pyridin-3-yl)benzamide], the results for the Ki on DDR2 and at DDR1 were 5 to 25 nM and less than 5 nM, respectively.
On to `Cc1ccc(C(=O)Nc2cncc(C(F)(F)F)c2)cc1[C@@H]1CCN(c2cnc3ccc(N4CCN(C)CC4)cn23)C1` [Example 72, (S)-4-methyl-3-(1-(6-(4-methylpiperazin-1-yl)imidazo[1,2-a]pyridin-3-yl)pyrrolidin-3-yl)-N-(5-(trifluoromethyl)pyridin-3-yl)benzamide], for which the Ki on DDR2 was 5 to 25 nM; on DDR1 it was less than 5 nM.
In the case of `Cc1ccc(C(=O)Nc2cncc(C(F)(F)F)c2)cc1[C@@H]1CCN(c2cncc(C(=O)N3CCN(C)CC3)c2)C1` [Example 40, (S)-4-methyl-3-(1-(5-(4-methylpiperazine-1-carbonyl)pyridin-3-yl)pyrrolidin-3-yl)-N-(5-(trifluoromethyl)pyridin-3-yl)benzamide], the Ki was 5 to 25 nM at DDR2 and less than 5 nM at DDR1.
In the same order, the values of `Cc1ccc(C(=O)Nc2cc(C(C)(C)C)no2)cc1[C@@H]1CCN(c2cncc(C#N)c2)C1` [Example 7, (S)—N-(3-(tert-butyl)isoxazol-5-yl)-3-(1-(5-cyanopyridin-3-yl)pyrrolidin-3-yl)-4-methylbenzamide] are 5 to 25 nM and less than 5 nM.
In the case of `Cc1ccc(C(=O)Nc2cc(OC(F)F)ccn2)cc1[C@@H]1CCN(c2cncc(C(N)=O)n2)C1` [Example 51, (S)-6-(3-(5-((4-(difluoromethoxy)pyridin-2-yl)carbamoyl)-2-methylphenyl)pyrrolidin-1-yl)pyrazine-2-carboxamide], the Ki on DDR2 and at DDR1 was less than 5 nM throughout.
Take `Cc1ccc(C(=O)Nc2cc(C3CC3)nn2C)cc1[C@@H]1CCN(c2cncc(-c3cnn(C)c3)c2)C1` [Example 59, (S)-N-(3-cyclopropyl-1-methyl-1H-pyrazol-5-yl)-4-methyl-3-(1-(5-(1-methyl-1H-pyrazol-4-yl)pyridin-3-yl)pyrrolidin-3-yl)benzamide]: the Ki on DDR2 is 5 to 25 nM; on DDR1, less than 5 nM.
`Cc1ccc(C(=O)Nc2cncc(C(F)(F)F)c2)cc1[C@@H]1CCN(c2cncc(C(=O)NCCO)c2)C1` [Example 30, (S)-N-(2-hydroxyethyl)-5-(3-(2-methyl-5-((5-(trifluoromethyl)pyridin-3-yl)carbamoyl)phenyl)pyrrolidin-1-yl)nicotinamide]: the figures for the Ki on DDR2 and at DDR1 were 5 to 25 nM and less than 5 nM, respectively.
On to `Cc1ccc(C(=O)Nc2cncc(C(F)(F)F)c2)cc1[C@@H]1CCN(c2cncc(OCCN3CCN(C)CC3)c2)C1` [Example 74, (S)-4-methyl-3-(1-(5-(2-(4-methylpiperazin-1-yl)ethoxy)pyridin-3-yl)pyrrolidin-3-yl)-N-(5-(trifluoromethyl)pyridin-3-yl)benzamide], for which the Ki on DDR2 was 5 to 25 nM; on DDR1 it was less than 5 nM.
For the compound `Cc1ccc(C(=O)Nc2cncc(C(F)(F)F)c2)cc1[C@@H]1CN(c2cncnc2)C[C@H]1CO` (racemic) [Example 104, 3-((3R,4S)-3-(4-(hydroxymethyl)-1-(pyrimidin-5-yl)pyrrolidin-3-yl)-4-methyl-N-(5-(trifluoromethyl)pyridin-3-yl)benzamide and 3-((3S,4R)-3-(4-(hydroxymethyl)-1-(pyrimidin-5-yl)pyrrolidin-3-yl)-4-methyl-N-(5-(trifluoromethyl)pyridin-3-yl)benzamide], the Ki on DDR2 is 5 to 25 nM; on DDR1, less than 5 nM.
As to `Cc1ccc(C(=O)Nc2cc(OC(F)F)ccn2)cc1[C@@H]1CCN(c2cnccn2)C1` [Example 92, N-[4-(difluoromethoxy)-2-pyridyl]-4-methyl-3-[(3S)-1-pyrazin-2-ylpyrrolidin-3-yl]benzamide], the Ki is 5 to 25 nM on DDR2 and less than 5 nM at DDR1.
As for `COc1ccc(C(=O)Nc2cncc(C(F)(F)F)c2)cc1C1CCN(c2cnn3cccnc23)C1` (centres unmarked) [Example 112, 4-methoxy-3-(1-(pyrazolo[1,5-a]pyrimidin-3-yl)pyrrolidin-3-yl)-N-(5-(trifluoromethyl)pyridin-3-yl)benzamide], the figures for the Ki on DDR2 and on DDR1 were 5 to 25 nM and less than 5 nM, respectively.
Turning to `O=C(Nc1cncc(C(F)(F)F)c1)c1ccc(OC(F)F)c(C2CCN(c3cncnc3)C2)c1` (centres unmarked) [Example 113, 4-(difluoromethoxy)-3-(1-(pyrimidin-5-yl)pyrrolidin-3-yl)-N-(5-(trifluoromethyl)pyridin-3-yl)benzamide], the Ki on DDR2 and at DDR1 was less than 5 nM throughout.
